# Laboratory results as given in publication PMC9501810, “Bitter Peptides YFYPEL, [sequence], and [sequence], Released during Gastric Digestion of Casein, Stimulate Mechanisms of Gastric Acid Secretion via Bitter Taste Receptors TAS2R16 and TAS2R38” (Journal of Agricultural and Food Chemistry, 2022).
# Where “and” joins values, the source holds several entries; their conditions need not be identical. Equal values may be shown once.
# Key:
# HGT-1 cells = assay: Proton secretion assay (intracellular proton index IPX, SNARF-1-AM); assay type: cell-based, human; conditions: for ΔIPX (change in intracellular proton index vs untreated cells): 10 min incubation in KRHB, n = 4–8; for ΔIPX (change in intracellular proton index vs untreated cells) / ΔIPX on co-incubation with probenecid: mean ± SEM; for proton secretion with peptide alone compared to untreated control cells: VAPFPEVF 17.5 µM, YFYPEL 0.03 µM, YQEPVLGPVRGPFPIIV 0.4 µM, p < 0.01; for proton secretion with peptide alone compared to untreated control cells / ΔIPX on co-incubation with probenecid: 10 min; for concentration with the lowest IPX value (minimum of curve fit; highest impact on secretory activity): curve fit over 0.01–200 µM proton secretion profile; for ΔIPX on co-incubation with probenecid: peptide (VAPFPEVF 17.5 µM, YFYPEL 0.03 µM, YQEPVLGPVRGPFPIIV 0.4 µM) + 1 mM probenecid, vs untreated cells
# Procedure: The measurement of proton secretion from HGT-1 cells represents a well-established model for the identification of bitter compounds. By affecting extraoral bitter taste receptors with bitter compounds, a modulatory effect on proton secretion can be measured. For this purpose, cells were washed with KRHB and incubated with 3 μM of the intracellular pH indicator 1,5 carboxy-seminaphto-rhodafluor acetoxymethyl ester (SNARF-1-AM) under standard conditions. After 30 min, the cells were washed again with KRHB and then incubated with casein (0.01–10 μM equimolar related to the relevant forms αS1- and β-casein), hydrolysate (0.01–10 μM), or the peptides (0.01–200 μM). […] All substances were dissolved and diluted in KRHB. 1 mM histamine was used as a positive control. Measurements were performed using FlexStation 3 (Molecular Devices, USA). The excitation wavelength was 488 nm, and the emission wavelengths were 580 and 640 nm. For calibration (pH range 7.0–8.0), the intracellular and extracellular pH was adjusted with 2 μM nigericin in potassium buffer (20 mM NaCl, 110 mM KCl, 1 mM CaCl2, 1 mM MgSO4, 18 mM D-glucose, and 20 mM HEPES). The intracellular proton index (IPX) was calculated as the log2 value of the 580/640 ratio and compared with cells without treatment. Negative values represent increased secretion of protons and therefore stimulation of mechanisms regulating gastric acid secretion in HGT-1 cells. In contrast, positive values represent an inhibition of secretion compared to the untreated control.
# TAS2R38 = assay: RT-qPCR gene expression of TAS2R38 in HGT-1 cells; assay type: cell-based, human; conditions: VAPFPEVF 17.5 µM, YFYPEL 0.03 µM, YQEPVLGPVRGPFPIIV 0.4 µM, normalized to PPIA and GAPDH and untreated cells, mean, n = 3–5
# Procedure: For mRNA expression analysis, 800,000 cells were seeded in a T25 cell culture flask (25 cm^2) 1 day before the experiment. After incubation with 17.5 μM […], 0.03 μM YFYPEL, or 0.4 μM […] for 15, 30, 60, and 120 min, RNA was isolated using the peqGOLD RNA Kit (VWR Peqlab, USA) following the manufacturer’s protocol. Determination of RNA concentration (A260/A280 between 2.03 and 2.09) was performed on a NanoDrop One^c (Thermo Fisher Scientific Inc., USA). RNA integrity number (RIN 9.9–10.0, version 2.6, assay class Eukaryote Total RNA Nano) was analyzed using a 2100 Bioanalyzer (Agilent Technologies, USA). Removal of gDNA and synthesis of cDNA were performed using the iScript gDNA Clear cDNA Synthesis Kit (BioRad, Feldkirchen, Germany) following the manufacturer’s protocol. Real-time-qPCR (RT-qPCR) was performed with 50 ng cDNA amplified with SsoAdvanced Universal SYBR Green Supermix (Bio-Rad Laboratories, Inc., USA). The sequences of the forward and reverse primers of the 25 TAS2Rs were taken from Liszt et al.([13]) (Supporting Information Table-SI 3). Verified primers for the TAS1Rs (TAS1R1: qHsaCID0013443; TAS1R2: qHsaCID0016106; TAS1R3: qHsaCED0002321) and for MAPK1 (qHsaCEP0050000) were obtained from Bio-Rad Laboratories. PPIA[37] and GAPDH[38] were used as reference genes. The effects of the peptides on gene expression were analyzed in comparison to untreated control cells. […]
# [1] = 0.1 µM, IPX = log2 of 580/640 ratio, negative = stimulated proton secretion
Substance,"ΔIPX (change in intracellular proton index vs untreated cells) (HGT-1 cells; 10 µM, negative = stimulated, positive = inhibited proton secretion)",proton secretion with peptide alone compared to untreated control cells (HGT-1 cells),concentration with the lowest IPX value (minimum of curve fit; highest impact on secretory activity) (HGT-1 cells) [µM],ΔIPX on co-incubation with probenecid (HGT-1 cells),change in gene expression of TAS2R38 (TAS2R38; incubation 15 min) [fold change],change in gene expression of TAS2R38 (TAS2R38; incubation 30 min),change in gene expression of TAS2R38 (TAS2R38; incubation 60 min) [fold change],change in gene expression of TAS2R38 (TAS2R38; incubation 120 min),ΔIPX (change in intracellular proton index vs untreated cells) (HGT-1 cells; [1])
VAPFPEVF [bitter casein peptide αS1-CN25–32],−0.286 ± 0.037,increased proton secretion,17.5,+0.043 ± 0.031,1.31,2.42 fold change and 2.42 ± 0.55 fold change,1.15,2.45 fold change and 2.45 ± 0.26 fold change,
YFYPEL [bitter casein peptide αS1-CN144–149],,increased proton secretion,0.03,−0.001 ± 0.019,2.96,3.40 fold change,2.39,2.91 fold change,−0.253 ± 0.027
YQEPVLGPVRGPFPIIV [bitter casein peptide βA1/A2-CN193–209],,increased proton secretion,0.4,−0.020 ± 0.036,2.01,3.71 fold change,2.05,2.38 fold change,−0.203 ± 0.048
